Data as given in the NIST ThermoML archive (doi:10.1007/s10765-008-0535-5).
± gives the expanded uncertainty stated by the source.

Conditions: Liquid, Pycnometric method

FCF [difluoromethane]
Conditions | mass density [kg/m3]
268.15 K, 8268 kPa | 1093.5 ± 1.8
268.15 K, 8502 kPa | 1093.5 ± 1.8
269.15 K, 9280 kPa | 1093.3 ± 1.8
269.15 K, 9512 kPa | 1093.3 ± 1.8
270.15 K, 10291 kPa | 1093.2 ± 1.8
270.15 K, 10521 kPa | 1093.2 ± 1.8
271.15 K, 11302 kPa | 1093 ± 1.8
271.15 K, 11531 kPa | 1093 ± 1.8
272.15 K, 12312 kPa | 1092.9 ± 1.8
272.15 K, 12421 kPa | 1092.9 ± 1.8
272.15 K, 12540 kPa | 1092.9 ± 1.8
273.15 K, 13321 kPa | 1092.7 ± 1.8
273.15 K, 13429 kPa | 1092.8 ± 1.8
273.15 K, 13551 kPa | 1092.7 ± 1.8
274.15 K, 14330 kPa | 1092.6 ± 1.8
274.15 K, 14438 kPa | 1092.6 ± 1.8
274.15 K, 14560 kPa | 1092.6 ± 1.8
275.15 K, 15337 kPa | 1092.4 ± 1.8
275.15 K, 15444 kPa | 1092.4 ± 1.8
275.15 K, 15568 kPa | 1092.4 ± 1.8
276.15 K, 16344 kPa | 1092.3 ± 1.8
276.15 K, 16452 kPa | 1092.3 ± 1.8
276.15 K, 16577 kPa | 1092.3 ± 1.8
277.15 K, 17350 kPa | 1092.1 ± 1.8
277.15 K, 17457 kPa | 1092.1 ± 1.8
277.15 K, 17583 kPa | 1092.1 ± 1.8
278.15 K, 18354 kPa | 1092 ± 1.8
278.15 K, 18462 kPa | 1092 ± 1.8
278.15 K, 18589 kPa | 1092 ± 1.8
279.15 K, 19358 kPa | 1091.8 ± 1.8
279.15 K, 19465 kPa | 1091.8 ± 1.8
279.15 K, 19595 kPa | 1091.8 ± 1.8
280.15 K, 20361 kPa | 1091.7 ± 1.8
280.15 K, 20468 kPa | 1091.7 ± 1.8
280.15 K, 20598 kPa | 1091.7 ± 1.8
281.15 K, 21363 kPa | 1091.5 ± 1.8
281.15 K, 21470 kPa | 1091.5 ± 1.8
281.15 K, 21601 kPa | 1091.5 ± 1.8
282.15 K, 22363 kPa | 1091.4 ± 1.8
282.15 K, 22472 kPa | 1091.4 ± 1.8
282.15 K, 22602 kPa | 1091.4 ± 1.8
283.15 K, 23363 kPa | 1091.2 ± 1.8
283.15 K, 23473 kPa | 1091.2 ± 1.8
283.15 K, 23603 kPa | 1091.2 ± 1.8
284.15 K, 24362 kPa | 1091.1 ± 1.8
284.15 K, 24472 kPa | 1091.1 ± 1.8
284.15 K, 24606 kPa | 1091 ± 1.8
285.15 K, 25359 kPa | 1090.9 ± 1.8
285.15 K, 25470 kPa | 1090.9 ± 1.8
285.15 K, 25603 kPa | 1090.9 ± 1.8
286.15 K, 26356 kPa | 1090.8 ± 1.8
286.15 K, 26466 kPa | 1090.8 ± 1.8
286.15 K, 26598 kPa | 1090.7 ± 1.8
287.15 K, 27351 kPa | 1090.6 ± 1.8
287.15 K, 27461 kPa | 1090.6 ± 1.8
287.15 K, 27594 kPa | 1090.6 ± 1.8
288.15 K, 28345 kPa | 1090.4 ± 1.8
288.15 K, 28454 kPa | 1090.4 ± 1.8
288.15 K, 28588 kPa | 1090.4 ± 1.8
289.15 K, 5774 kPa | 1015.9 ± 1.6
289.15 K, 5835 kPa | 1015.9 ± 1.6
289.15 K, 29338 kPa | 1090.3 ± 1.8
289.15 K, 29446 kPa | 1090.3 ± 1.8
289.15 K, 29581 kPa | 1090.3 ± 1.8
290.15 K, 6570 kPa | 1015.8 ± 1.6
290.15 K, 6631 kPa | 1015.8 ± 1.6
291.15 K, 7365 kPa | 1015.7 ± 1.6
291.15 K, 7428 kPa | 1015.7 ± 1.6
292.15 K, 8161 kPa | 1015.6 ± 1.6
292.15 K, 8224 kPa | 1015.5 ± 1.6
293.15 K, 8956 kPa | 1015.5 ± 1.6
293.15 K, 9019 kPa | 1015.4 ± 1.6
294.15 K, 9752 kPa | 1015.3 ± 1.6
294.15 K, 9815 kPa | 1015.3 ± 1.6
295.15 K, 10546 kPa | 1015.2 ± 1.6
295.15 K, 10610 kPa | 1015.2 ± 1.6
296.15 K, 11341 kPa | 1015.1 ± 1.6
296.15 K, 11405 kPa | 1015.1 ± 1.6
297.15 K, 12135 kPa | 1015 ± 1.6
297.15 K, 12199 kPa | 1014.9 ± 1.6
298.15 K, 12929 kPa | 1014.9 ± 1.6
298.15 K, 12993 kPa | 1014.8 ± 1.6
299.15 K, 13723 kPa | 1014.7 ± 1.6
299.15 K, 13787 kPa | 1014.7 ± 1.6
300.15 K, 14517 kPa | 1014.6 ± 1.6
300.15 K, 14581 kPa | 1014.6 ± 1.6
301.15 K, 15309 kPa | 1014.5 ± 1.6
301.15 K, 15374 kPa | 1014.4 ± 1.6
302.15 K, 16102 kPa | 1014.4 ± 1.6
302.15 K, 16167 kPa | 1014.3 ± 1.6
303.15 K, 16894 kPa | 1014.2 ± 1.6
303.15 K, 16960 kPa | 1014.2 ± 1.6
304.15 K, 17685 kPa | 1014.1 ± 1.6
304.15 K, 17752 kPa | 1014.1 ± 1.6
305.15 K, 18476 kPa | 1014 ± 1.6
305.15 K, 18543 kPa | 1014 ± 1.6
306.15 K, 19267 kPa | 1013.9 ± 1.6
306.15 K, 19335 kPa | 1013.8 ± 1.6
307.15 K, 20125 kPa | 1013.7 ± 1.6
308.15 K, 20848 kPa | 1013.6 ± 1.6
308.15 K, 20915 kPa | 1013.6 ± 1.6
309.15 K, 21639 kPa | 1013.5 ± 1.6
309.15 K, 21704 kPa | 1013.4 ± 1.6
310.15 K, 22429 kPa | 1013.4 ± 1.6
310.15 K, 22492 kPa | 1013.3 ± 1.6
311.15 K, 23217 kPa | 1013.3 ± 1.6
311.15 K, 23281 kPa | 1013.2 ± 1.6
312.15 K, 24005 kPa | 1013.2 ± 1.6
312.15 K, 24068 kPa | 1013.1 ± 1.6
313.15 K, 24793 kPa | 1013 ± 1.6
313.15 K, 24855 kPa | 1012.9 ± 1.6
314.15 K, 25579 kPa | 1012.9 ± 1.6
314.15 K, 25641 kPa | 1012.8 ± 1.6
315.15 K, 26364 kPa | 1012.8 ± 1.6
315.15 K, 26427 kPa | 1012.7 ± 1.6
316.15 K, 27149 kPa | 1012.7 ± 1.6
316.15 K, 27212 kPa | 1012.6 ± 1.6
317.15 K, 27934 kPa | 1012.5 ± 1.6
317.15 K, 27996 kPa | 1012.4 ± 1.6
318.15 K, 28719 kPa | 1012.4 ± 1.6
318.15 K, 28779 kPa | 1012.3 ± 1.6
